Results reported in patent US20230056205A1, “SUBSTITUTED 4,6-DIHYDROSPIRO[[1,2,3]TRIAZOLO[4,5-B]PYRIDINE-7,3'-INDOLINE]-2',5(3H)-DIONE ANALOGUES” (The Board of Regents of The University of Texas System, priority 2019, published 2023).
Read-outs that look alike come from different tables or passages of the source.

What was measured:
[1] = Cytotoxicity assay (CellTiter-Glo); format: cell-based; conditions: human, Huh7 cells stably expressing DENV-2 replicon
Procedure: Cytotoxicity Assay. Huh7 cells or Huh7 replicon cells were seeded in a 96-well plate. After incubation at 37° C. with 5% CO2 overnight, the cells were treated with 2-fold serial dilutions of compounds. Experiments were performed in duplicates. After 48 h of incubation, cell viability was measured by adding the CellTiter-Glo reagent (Promega) to each well. The cell viability in 0.45% DMSO-treatment groups was treated at 100%. The cell viability in compound-treated wells was normalized to that of DMSO-treated wells. CC50 values were calculated using four parameter logistic regression in GraphPad software Prism 8.0.

DENV-1 replicon = assay: Luciferase reporter replicon-based screening, DENV-1; format: cell-based, DENV-1 (strain WestPac); conditions: Dengue virus, DENV1, Huh-7, 48 h, read-out: EC50 DENV-1
Procedure: (§1) Luciferase Reporter Replicon-Based Screening. Huh7 cells containing a luciferase reporter replicon of DENV-1 (strain WestPac), DENV-2 (New Guinea C strain, NGC), DENV-3 (strain D3MY05-34640) and DENV-4 (strain D4MY01-22713) were used in this study. The replicon cells containing the Renilla luciferase and neomycin-resistance genes were generated using a similar strategy as described previously.^55 Briefly, Huh7 DENV-1 to -4 replicon cells were seeded at a density of 10k per well in a 96-well microplate. After incubation at 37° C. with 5% CO2 overnight, the cells were treated with 2-fold serial dilutions of compounds. Experiments were performed in duplicates. After 48 h of incubation, luciferase activities were measured using the EnduRen live-cell substrate (Promega) by following the manufacturer’s instructions. The dose-dependent curve was plotted and EC50 values were calculated using four parameter logistic regression in GraphPad software Prism 8.0.

DENV-2 replicon = assay: Luciferase reporter replicon-based screening, DENV-2; format: cell-based, DENV-2 (New Guinea C strain, NGC)
Procedure: as §1

DENV-4 replicon = assay: Luciferase reporter replicon-based screening, DENV-4; format: cell-based, DENV-4 (strain D4MY01-22713); conditions: Dengue virus, DENV4, Huh-7, 48 h, read-out: EC50 DENV-4
Procedure: as §1

DENV-3 replicon = assay: Luciferase reporter replicon-based screening, DENV-3; format: cell-based, DENV-3 (strain D3MY05-34640)
Procedure: as §1

[2] = Dengue virus, DENV2, Huh-7, 48 h, read-out: EC50 DENV-2, Huh7 cells stably expressing DENV-2 replicon, 48 h
[3] = read-out: EC50 DENV-2, Huh7 cells stably expressing DENV-2 replicon, 48 h
[4] = Dengue virus, DENV3, Huh-7, 48 h, read-out: EC50 DENV-3, Huh7 cells stably expressing DENV-3 replicon, 48 h

Row | SMILES | CC50 at 48 h [1] | EC50 (DENV-1 replicon) | EC50 (DENV-2 replicon; [2]) | EC50 (DENV-2 replicon; [3]) | EC50 (DENV-4 replicon) | EC50 (DENV-3 replicon; [4]) | EC50 (DENV-3 replicon; read-out: EC50 DENV-3, Huh7 cells stably expressing DENV-3 replicon, 48 h)
1 | C[C@@H](c1ccc(Cl)cc1)n1nnc2c1NC(=O)C[C@]21C(=O)N(Cc2ccc(F)cc2)c2ccc(Cl)cc21 [Compound 25, (R)-5'-Chloro-3-((S)-1-(4-chlorophenyl)ethyl)-1'-(4-fluorobenzyl)-4,6-dihydrospiro[[1,2,3]triazolo[4,5-b]pyridine-7,3'-indoline]-2',5(3H)-dione] | > 10 µM | 5 µM | 0.14 to 0.29 µM | 0.16 µM | 10 µM | – | –
2 | CCN1C(=O)[C@]2(CC(=O)Nc3c2nnn3[C@@H](C)c2ccc(Cl)cc2)c2cc(Cl)ccc21 [Compound 8, (R)-5'-Chloro-3-((S)-1-(4-chlorophenyl)ethyl)-1'-ethyl-4,6-dihydrospiro[[1,2,3]triazolo[4,5-b]pyridine-7,3'-indoline]-2',5(3H)-dione] | > 10 µM | 2.5 µM | 0.024 µM | – | > 5 µM | 0.006 µM | –
3 | C[C@@H](c1ccc(Cl)cc1)n1nnc2c1NC(=O)C[C@]21C(=O)N(CCCCCCCCCCN(C)C)c2ccc(Cl)cc21 [Compound 70, (R)-5'-Chloro-3-((S)-1-(4-chlorophenyl)ethyl)-1'-(10-(dimethylamino)decyl)-4,6-dihydrospiro[[1,2,3]triazolo[4,5-b]pyridine-7,3'indoline]-2',5(3H)-dione] | > 10 µM | 2.7 µM | 3.5 µM | – | 3.5 µM | 0.098 µM | –
4 | C[C@@H](c1ccc(Cl)cc1)n1nnc2c1NC(=O)C[C@]21C(=O)N(CCN2CCCCC2)c2ccc(Cl)cc21 [Compound 56, (R)-5'-Chloro-3-((S)-1-(4-chlorophenyl)ethyl)-1'-(2-(piperidin-1-yl)ethyl)-4,6-dihydrospiro[[1,2,3]triazolo[4,5-b]pyridine-7,3'-indoline]-2',5(3H)-dione] | > 10 µM | > 5 µM | 0.074 µM | – | > 5 µM | 0.005 µM | –
5 | C[C@@H](c1ccc(Cl)cc1)n1nnc2c1NC(=O)C[C@]21C(=O)N(Cc2ccc(Cl)cc2)c2ccc(Cl)cc21 [Compound 27, (R)-5'-Chloro-1'-(4-chlorobenzyl)-3-((S)-1-(4-chlorophenyl)ethyl)-4,6-dihydrospiro[[1,2,3]triazolo[4,5-b]pyridine-7,3'-indoline]-2',5(3H)-dione] | > 10 µM | 2.2 µM | 3.3 µM | – | 6.5 µM | 0.2 µM | –
6 | C[C@@H](c1ccc(Cl)cc1)n1nnc2c1NC(=O)C[C@]21C(=O)N(CC2CC2)c2ccc(Cl)cc21 [Compound 17, (R)-5'-Chloro-3-((S)-1-(4-chlorophenyl)ethyl)-1'-(cyclopropylmethyl)-4,6-dihydrospiro[[1,2,3]triazolo[4,5-b]pyridine-7,3'-indoline]-2',5(3H)-dione] | > 10 µM | 3.1 µM | 0.11 µM | – | > 5 µM | 0.017 µM | –
7 | C[C@@H](c1ccc(Cl)cc1)n1nnc2c1NC(=O)C[C@]21C(=O)N(CCCCN2CCCCC2)c2ccc(Cl)cc21 [Compound 67, (R)-5'-Chloro-3-((S)-1-(4-chlorophenyl)ethyl)-1'-(4-(piperidin-1-yl)butyl)-4,6-dihydrospiro[[1,2,3]triazolo[4,5-b]pyridine-7,3'-indoline]-2',5(3H)-dione] | > 10 µM | > 5 µM | 0.35 µM | – | > 5 µM | 0.078 µM | –
8 | COCOCCN1C(=O)[C@]2(CC(=O)Nc3c2nnn3[C@@H](C)c2ccc(Cl)cc2)c2cc(Cl)ccc21 [Compound 38, (R)-5'-Chloro-3-((S)-1-(4-chlorophenyl)ethyl)-1'-(2-(methoxymethoxy)ethyl)-4,6-dihydrospiro[[1,2,3]triazolo[4,5-b]pyridine-7,3'-indoline]-2',5(3H)-dione] | > 10 µM | > 5 µM | – | – | > 5 µM | – | –
9 | C[C@@H](c1ccc(Cl)cc1)n1nnc2c1NC(=O)C[C@]21C(=O)N(CCN2CCN(C)CC2)c2ccc(Cl)cc21 [Compound 59, (R)-5'-Chloro-3-((S)-1-(4-chlorophenyl)ethyl)-1'-(2-(4-methylpiperazin-1-yl)ethyl)-4,6-dihydrospiro[[1,2,3]triazolo[4,5-b]pyridine-7,3'-indoline]-2',5(3H)-dione] | > 10 µM | > 5 µM | 0.3 µM | – | > 5 µM | 0.03 µM | –
10 | C[C@@H](c1ccc(Cl)cc1)n1nnc2c1NC(=O)C[C@]21C(=O)N(CCCCCCN(C)C)c2ccc(Cl)cc21 [Compound 68, (R)-5'-Chloro-3-((S)-1-(4-chlorophenyl)ethyl)-1'-(6-(dimethylamino)hexyl)-4,6-dihydrospiro[[1,2,3]triazolo[4,5-b]pyridine-7,3'indoline]-2',5(3H)-dione] | > 10 µM | 1.5 µM | 0.9 µM | – | > 5 µM | 0.066 µM | –
11 | CC(C)N1C(=O)[C@]2(CC(=O)Nc3c2nnn3[C@@H](C)c2ccc(Cl)cc2)c2cc(Cl)ccc21 [Compound 13, (R)-5'-Chloro-3-((S)-1-(4-chlorophenyl)ethyl)-1'-isopropyl-4,6-dihydrospiro[[1,2,3]triazolo[4,5-b]pyridine-7,3ʹ-indoline]-2',5(3H)-dione] | > 10 µM | 5.7 µM | 0.023 µM | – | > 5 µM | 0.009 µM | –
12 | C[C@@H](c1ccc(Cl)cc1)n1nnc2c1NC(=O)C[C@]21C(=O)N(Cc2cccc(F)c2)c2ccc(Cl)cc21 [Compound 26, (R)-5'-Chloro-3-((S)-1-(4-chlorophenyl)ethyl)-1'-(3-fluorobenzyl)-4,6-dihydrospiro[[1,2,3]triazolo[4,5-b]pyridine-7,3'-indoline]-2',5(3H)-dione] | > 10 µM | 10 µM | – | – | > 5 µM | – | –
13 | CCOC(CN1C(=O)[C@]2(CC(=O)Nc3c2nnn3[C@@H](C)c2ccc(Cl)cc2)c2cc(Cl)ccc21)OCC [Compound 41, (R)-5'-Chloro-3-((S)-1-(4-chlorophenyl)ethyl)-1'-(2,2-diethoxyethyl)-4,6-dihydrospiro[[1,2,3]triazolo[4,5-b]pyridine-7,3ʹ-indoline]-2',5(3H)-dione] | > 10 µM | > 5 µM | – | – | > 5 µM | – | –
14 | C[C@@H](c1ccc(Cl)cc1)n1nnc2c1NC(=O)C[C@]21C(=O)N(CCCCCl)c2ccc(Cl)cc21 [Compound 48, (R)-5'-Chloro-1'-(4-chlorobutyl)-3-((S)-1-(4-chlorophenyl)ethyl)-4,6-dihydrospiro[[1,2,3]triazolo[4,5-b]pyridine-7,3'-indoline]-2',5(3H)-dione] | > 10 µM | > 5 µM | 0.037 to 0.29 µM | 0.073 µM | > 5 µM | – | –
15 | C[C@@H](c1ccc(Cl)cc1)n1nnc2c1NC(=O)C[C@]21C(=O)N(CCCCCCCCBr)c2ccc(Cl)cc21 [Compound 50, (R)-1'-(8-bromooctyl)-5'-chloro-3-((S)-1-(4-chlorophenyl)ethyl)-4,6-dihydrospiro[[1,2,3]triazolo[4,5-b]pyridine-7,3'-indoline]-2',5(3H)-dione] | > 10 µM | – | > 5 µM | – | – | – | –
16 | C[C@@H](c1ccc(Cl)cc1)n1nnc2c1NC(=O)C[C@]21C(=O)N(CCCCCCBr)c2ccc(Cl)cc21 [Compound 49, (R)-1'-(6-Bromohexyl)-5'-chloro-3-((S)-1-(4-chlorophenyl)ethyl)-4,6-dihydrospiro[[1,2,3]triazolo[4,5-b]pyridine-7,3'-indoline]-2ʹ,5(3H)-dione] | > 10 µM | – | 3 µM | – | – | – | –
17 | COC(=O)CN1C(=O)[C@]2(CC(=O)Nc3c2nnn3[C@@H](C)c2ccc(Cl)cc2)c2cc(Cl)ccc21 [Compound 43, Methyl 2-((R)-5'-chloro-3-((S)-1-(4-chlorophenyl)ethyl)-2',5-dioxo-3,4,5,6-tetrahydrospiro[[1,2,3]triazolo[4,5-b]pyridine-7,3'-indolin]-1'-yl)acetate] | > 10 µM | > 5 µM | – | – | > 5 µM | 0.009 to 0.076 µM | 0.011 µM
18 | C[C@@H](c1ccc(Cl)cc1)n1nnc2c1NC(=O)C[C@]21C(=O)N(CC(=O)O)c2ccc(Cl)cc21 [Compound 45, 2-((R)-5'-Chloro-3-((S)-1-(4-chlorophenyl)ethyl)-2',5-dioxo-3,4,5,6-tetrahydrospiro[[1,2,3]triazolo[4,5-b]pyridine-7,3'-indolin]-1ʹ-yl)acetic acid] | > 10 µM | – | 2.4 µM | – | – | – | –
